Test results published in paper PMC6740193 (ACS Omega, 2019).

Molecular target: T1, 1-deoxy-D-xylulose-5-phosphate reductoisomerase (DXR) (Escherichia coli, UniProt P45568)
T1 sequence (P45568 1-398): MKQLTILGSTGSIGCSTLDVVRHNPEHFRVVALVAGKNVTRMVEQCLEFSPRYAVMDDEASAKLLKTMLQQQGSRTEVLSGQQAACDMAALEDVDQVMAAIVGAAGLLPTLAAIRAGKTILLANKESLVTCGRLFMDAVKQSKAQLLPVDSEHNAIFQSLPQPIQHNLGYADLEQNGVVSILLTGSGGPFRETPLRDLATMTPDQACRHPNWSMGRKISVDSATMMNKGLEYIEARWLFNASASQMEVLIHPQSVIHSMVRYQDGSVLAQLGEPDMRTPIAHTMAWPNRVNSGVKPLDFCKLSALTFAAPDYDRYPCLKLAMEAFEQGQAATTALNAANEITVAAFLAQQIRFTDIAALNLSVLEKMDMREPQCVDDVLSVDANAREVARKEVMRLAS
Experiment: recombinant enzyme assay, NADPH consumption at […] nm
Format: biochemical

**Q.** How did the IC50 turn out when `O=P(O)(O)CCCB(O)O` [compound 4, 3-Borono Propyl Phosphonic Acid] was run?
**A.** 128 ± 3 µM
